Results on 20 molecules are retold here after patent publication US7067533B2, “Aminophenoxyacetamide derivatives and pharmaceutical composition containing thereof” (Daiichi Asubio Pharma Co., Ltd., priority 2000, dated 2006).

Assay [1] deals with primary cultures (neurons) from cerebral cortices of fetal Wistar rats. Description: Biological Test 4: neuroprotective inhibiting effect by calbindin antisense oligonucleotide (MTT). Particulars: 300 μM glutamic acid. The format is cell-based, rat.
For assay [2] the test system is unchanged. Description: Biological Test 2: antagonism of the neuroprotective effect by MTA treatment (MTT). The format is cell-based, rat. The settings on record: 0.75 mM MTA added 30 minutes before test compound, glutamate. The method, then:
This biological test is performed to determine whether the neuroprotective effect of the test compounds is due to the activation of receptors of physiological active substances or not, by using antagonistic test for neutralizing antibody and Inhibitor for FGF, NT-3, NT-4/5, BDNF, IGF-I/II, NGF, PDGF and estrogen, respectively.
Chem., 268, 4244 (1993)]. Therefore, the neuroprotective effect of the test compounds is inhibited by treatment of MTA, this effect is depended by the signal transfer effect through the phosphorylation of FGF receptor.
The inhibitors of the various kinds of receptor were dissolved in the optimum concentration, and MTA was dissolved in the concentration of 7.5 mM, just before the using. 30 minutes before the treatment of the test compounds, the optimum concentration of each inhibitors or 0.75 mM of MTA was added, and the neuroprotective effect of the test compounds was determined by mean of MTT method.

Assay [3] has the same test system. The experiment in a line: Biological Test 1: neuroprotective effect against glutamate induced neuronal cell death (MTT). The format is cell-based, rat. Particulars: Compound: 1 μM; glutamate 1 mM; control group = 100%. As for the experimental part:
Cultures were maintained at 37 C. in a 90% air/10% CO2 humidified incubator. Glutamate was added to the culture at day 4 to the final concentration of 1 mM. […] MTT was dissolved in phosphate buffered saline (PBS, pH 7.4) at 5 mg/ml and filtered to sterilize and remove a small amount of insoluble residue present in some batches of MTT, and added to the cultures at a final concentration of 0.5 mg/ml.
The test compounds (1 μM) was added 24 hrs prior to glutamate treatment and simultaneously with glutamate.
Survival rate of living cells (%) =[(test compound group—glutamic acid treated group)÷(control group—glutamic acid treated group)]×100

For assay [4], the system named is cerebral edema (water content of cerebral hemisphere), Wistar rats. The experiment in a line: Biological Test 5: cerebral edema suppressing effect. Type of assay: in vivo. Particulars: iv, 144 h, rat, post-TBI day 6, read-out: Cerebral edema suppressing rate (%); for inhibition in vivo at 1 mg/kg: 1 mg/kg intravenously just after the operation; for inhibition in vivo at 3 mg/kg: 3 mg/kg intravenously just after the operation. As for the experimental part:
Adult male Wistar rats weighing 210–230 g were used in the present study and housed in an artificially controlled environment with 12-hour light/dark cycle. Animals were anesthetized with pentobarbital sodium (50 mg/kg of body weight, i.p., Nembutal, Dinabbott, Japan) and placed in a stereotaxic apparatus. The skull was exposed and a hole was made on the parietal bone; 1.5 mm posterior and 0.8 mm lateral to the bregma. All procedures were performed under a surgery microscope to avoid excess irritation to the meninges and the underlying brain. A brass screw with a blunt tip (1.0 mm in diameter and 3.0 mm in length, Biomedica, Japan) was inset in the hole. The screw tip protruding intracranially was approximately 2.5 mm, which stuck into the parietal part of the right cerebrum through the meninges. In sham-operated rats, scalp was closed without attaching a screw to the hole. After surgery, all rats were kept in their original dens until sacrifice. Rats were allowed to feed chow and water ad libitum.
Under anesthesia the rat cerebral hemispheres of the target were processed for water content on post-TBI day 6 (n=6). The cerebral hemispheres dissected out were weighed, dried for 24 hours at 110 degree (Celsius) and then weighed again. The subtracted amount of the wet and dry weights was regarded as tissue water of the target, and utilized for the analysis of the cerebral edema.
The water content was calculated by using the following formula:
Water content (%) =[(wet weight of hemisphere—dry weight of hemisphere)/wet weight of hemisphere]×100
The test compounds were intravenously administered just after the operation via tail vein of the rats.

In the case of `Cc1c(C)c(NCC(=O)N(C)C2CCN(c3ccc(F)cc3)CC2)c(C)c(C)c1N` [Compound 38, 2-(4-Amino-2,3,5,6-tetramethylanilino)-N-[1-(4-fluorophenyl)-4-piperidinyl]-N-methylacetamide], in assay [1] (0.1 μM), the “Survival Rate (%) [antisense (+): 5 μM]” value amounted to 28% and the “Survival Rate (%) [antisense (−)]” value came to 100%. In assay [1] (1 μM), the “Survival Rate (%) [antisense (+): 5 μM]” value is 33% and the “Survival Rate (%) [antisense (−)]” value was 106%. The “Survival Rate (%) (Compound: 1 μl & MTA treatment)” value in assay [2] is 19%. Moreover, the “Survival Rate (%) (Compound: 1 μl)” value in assay [3] was determined as 124%.
Turning to `Cc1c(C)c(OCC(=O)N(C)C2CCN(Cc3ccc(C(N)=O)cc3)CC2)c(C)c(C)c1N` [Compound 19, 4-({4-[[(4-Amino-2,3,5,6-tetramethylphenoxy)acetyl]-(methyl)amino]-1-piperidinyl}methyl)bezamide], the “Survival Rate (%) (Compound: 1 μl & MTA treatment)” value in assay [2] was 28%. The “Survival Rate (%) (Compound: 1 μl)” value in assay [3] was found to be 96%.
Regarding `Cc1c(C)c(OCC(=O)N(C)C2CCN(C(C)Cc3ccccc3)CC2)c(C)c(C)c1N` (centres unmarked) [Compound 22, 2-(4-Amino-2,3,5,6-tetramethylphenoxy)-N-methyl-N-[1-(1-methyl-2-phenylethyl)-4-piperidinyl]acetamide], the “Survival Rate (%) (Compound: 1 μl & MTA treatment)” value in assay [2] amounted to 32%. Besides, in assay [3], the “Survival Rate (%) (Compound: 1 μl)” value was found to be 79%.
Take `Cc1c(C)c(C)c(OCC(=O)N(C)C2CCN(CCc3ccccc3)CC2)c(N)c1C` [Compound 29, 2-(2-Amino-3,4,5,6-tetramethylphenoxy)-N-methyl-N-[1-(2-phenylethyl)-4-piperidinyl]acetamide]: the inhibition in vivo at 1 mg/kg in assay [4] amounted to 13.8%.
Turning to `Cc1c(C)c(N)c(C)c(OCC(=O)N(C)C2CCN(C(=O)c3ccccc3)CC2)c1C` [Compound 33, 2-(3-Amino-2,4,5,6-tetramethylphenoxy)N-(1-benzoyl-4-piperidinyl)-N-methylacetamide], in assay [2], the “Survival Rate (%) (Compound: 1 μl & MTA treatment)” value was 46%. In addition, the “Survival Rate (%) (Compound: 1 μl)” value in assay [3] is given as 120%.
Regarding “BFGF: Reference test substance in Table 10 (1 ng, 10 ng); not defined further; FGF is a physiologically active substance inducing CalbindinD-28k”, the “Survival Rate (%) [antisense (+): 5 μM]” value in assay [1] (1 ng) amounted to 8%; in assay [1] (10 ng), 35%. For the same molecule, the figures for the “Survival Rate (%) [antisense (−)]” value in assay [1] (1 ng) and in assay [1] (10 ng) were 71% and 101%, respectively.
Turning to `Cc1c(C)c(OCC(=O)N(C)C2CCN(CC(O)c3ccccc3)CC2)c(C)c(C)c1N` (centres unmarked) [Compound 11, 2-(4-Amino-2,3,5,6-tetramethylphenoxy)-N-[1-(2-hydroxy-2-phenylethyl)-4-piperidinyl]-N-methylacetamide], the “Survival Rate (%) (Compound: 1 μl & MTA treatment)” value in assay [2] came out at 56%. Also, the “Survival Rate (%) (Compound: 1 μl)” value in assay [3] is given as 74%.
`Cc1c(C)c(N)c(C)c(OCC(=O)N(C)C2CCN(Cc3ccc(C#N)cc3)CC2)c1C` [Compound 34, 2-(3-Amino-2,4,5,6-tetramethylphenoxy)-N-[1-(4-cyano-benzyl)-4-piperidinyl]-N-methylacetamide]: the “Survival Rate (%) (Compound: 1 μl & MTA treatment)” value in assay [2] stood at 21%. In addition, the “Survival Rate (%) (Compound: 1 μl)” value in assay [3] was 74%.
As to `Cc1c(C)c(OCC(=O)N(C)C2CCN(CCOCC(O)c3ccccc3)CC2)c(C)c(C)c1N` (centres unmarked) [Compound 17, 2-(4-Amino-2,3,5,6-tetramethylphenoxy)-N-{1-[2-(2-hydroxy-2-phenylethoxy)ethyl]-4-piperidinyl}-N-methylacetamide], the “Survival Rate (%) (Compound: 1 μl & MTA treatment)” value in assay [2] is given as 55%. Moreover, in assay [3], the “Survival Rate (%) (Compound: 1 μl)” value worked out at 85%.
As to `Cc1c(C)c(OCC(=O)N(C)C2CCN(CCOc3ccccc3)CC2)c(C)c(C)c1N` [Compound 14, 2-(4-Amino-2,3,5,6-tetramethylphenoxy)-N-methyl-N-[1-(2-phenoxyethyl)-4-piperidinyl]acetamide], the inhibition in vivo at 1 mg/kg in assay [4] amounted to 18.7%.
Take `Cc1c(C)c(OC(C)C(=O)N(C)C2CCN(CC3CC3c3ccccc3)CC2)c(C)c(C)c1N` (stereo not drawn) [Compound 26, 2-(4-Amino-2,3,5,6-tetramethylphenoxy)-N-methyl-N-[1-(trans-2-phenyl-1-cyclopropylmethyl)-4-piperidniyl]propanamide]: in assay [4], the inhibition in vivo at 3 mg/kg stood at 11.9%.
Turning to `Cc1c(C)c(OCC(=O)N(C)C2CCN(CC(=O)c3ccccc3)CC2)c(C)c(C)c1N` [Compound 10, 2-(4-Amino-2,3,5,6-tetramethylphenoxy)-N-[1-(2-phenyl-2-oxoethyl)-4-piperidinyl]-N-methylacetamide], in assay [2], the “Survival Rate (%) (Compound: 1 μl & MTA treatment)” value is listed as 31%. Moreover, in assay [3], the “Survival Rate (%) (Compound: 1 μl)” value came out at 86%.
Regarding `Cc1cc(C)c(NCC(=O)N(C)C2CCN(c3ccc(F)cc3)CC2)c(C)c1N` [Compound 39, 2-(3-Amino-2,4,6-trimethylanilino)-N-[1-(4-fluoro-phenyl)-4-piperidinyl]-N-methylacetamide], the “Survival Rate (%) (Compound: 1 μl & MTA treatment)” value in assay [2] is recorded as 28%. Further, in assay [3], the “Survival Rate (%) (Compound: 1 μl)” value amounted to 94%.
Consider `CCCCN1CCC(N(C)C(=O)COc2c(C)c(C)c(N)c(C)c2C)CC1` [Compound 9, 2-(4-Amino-2,3,5,6-tetramethylphenoxy)-N-(1-butyl-4-piperidinyl)-N-methylacetamide], for which the “Survival Rate (%) (Compound: 1 μl & MTA treatment)” value in assay [2] came out at 5%. Moreover, in assay [3], the “Survival Rate (%) (Compound: 1 μl)” value worked out at 104%.
As to `Cc1c(C)c(OCC(=O)N(C)C2CCN(CC(=O)N(C)c3ccccc3)CC2)c(C)c(C)c1N` [Compound 15, 2-(4-Amino-2,3,5,6-tetramethylphenoxy)-N-methyl-N-{1-[2-(N-methylanilino)-2-oxoethyl]-4-piperidinyl}acetamide], the inhibition in vivo at 1 mg/kg in assay [4] was determined as 14.7%.
Consider `Cc1c(C)c(NCC(=O)N(C)C2CCN(c3nc4ccccc4s3)CC2)c(C)c(C)c1N` [Compound 37, 2-(4-Amino-2,3,5,6-tetramethylanilino)-N-[1-(1,3-benzothiazol-2-yl)-4-piperidinyl]-N-methylacetamide], for which the “Survival Rate (%) (Compound: 1 μl & MTA treatment)” value in assay [2] is on record as 20%. The “Survival Rate (%) (Compound: 1 μl)” value in assay [3] turned out to be 95%.
`Cc1c(C)c(OC(C)C(=O)N(C)C2CCN(CC(=O)N(C)c3ccccc3)CC2)c(C)c(C)c1N` (centres unmarked) [Compound 27, 2-(4-Amino-2,3,5,6-tetramethylphenoxy)-N-methyl-N-{1-[2-(N-methylanilino)-2-oxoethyl]-4-piperidinyl}propanamide]: the inhibition in vivo at 3 mg/kg in assay [4] turned out to be 11.8%.
On to `Cc1c(C)c(OCC(=O)N(C)C2CCN(CCN3CCOCC3)CC2)c(C)c(C)c1N` [Compound 16, 2-(4-Amino-2,3,5,6-tetramethylphenoxy)-N-methyl-N-{1-[2-(4-morpholinyl)ethyl]-4-piperidinyl}acetamide], for which the “Survival Rate (%) (Compound: 1 μl & MTA treatment)” value in assay [2] was found to be 33%. Further, the “Survival Rate (%) (Compound: 1 μl)” value in assay [3] was 101%.
Regarding `Cc1c(C)c(OC(C)(C)C(=O)N(C)C2CCN(CCc3ccccc3)CC2)c(C)c(C)c1N` [Compound 28, 2-(4-Amino-2,3,5,6-tetramethylphenoxy)-N,2-dimethyl-N-[1-(2-phenylethyl)-4-piperidinyl]propanamide], the “Survival Rate (%) (Compound: 1 μl & MTA treatment)” value in assay [2] amounted to 46%. Further, in assay [3], the “Survival Rate (%) (Compound: 1 μl)” value came out at 103%.
`Cc1c(C)c(OCC(=O)N(C)C2CCN(CC(=O)Nc3ccccc3)CC2)c(C)c(C)c1N` [Compound 7, 2-(4-Amino-2,3,5,6-tetramethylphenoxy)-N-[1-(2-anilino-2-oxoethyl)-4-piperidinyl]-N-methylacetamide]: in assay [2], the “Survival Rate (%) (Compound: 1 μl & MTA treatment)” value came out at 32%. Moreover, in assay [3], the “Survival Rate (%) (Compound: 1 μl)” value is 76%.
